# Results from patent US20120283193A1, “MANIPULATION OF BRAIN IN A CIRCUIT-SPECIFIC MANNER” (priority 2009, published 2012).
# Like-named read-outs stand apart in the source and are kept apart here.
# Legend:
# OB interneurons = experiment: Neurotransmitter expression in olfactory bulb interneurons after kin/non-kin odorant exposure; assay type: in vivo, Xenopus laevis
# VSC neurons = assay type: in vivo, Xenopus
# Description: (§1) Neuropharmacology. […] For selective ablation of VSCDA neurons, MPTP was bath-applied in the dark to larvae for 8 h at stage 41. 100 mM deprenyl (Sigma) was bath-applied to inhibit monoamine oxidase.
# Immunocytochemistry. The number of neurons in the VSC was quantified by counting the cells within the core and the surrounding annular region in sections of the diencephalon.
# A pharmacological approach to test the involvement of electrical activity and calcium signaling was then performed. […] agarose beads loaded with calcein acetoxymethylester (calcein-AM) tracer were implanted in the roof of the hypothalamus above the VSC to evaluate the time course of drug delivery.
# Xenopus larvae = experiment: Skin pigmentation adaptation to illumination/background in larvae; assay type: in vivo; settings: for light-dependent changes in pigmentation (reduction in pigmented area) driven by newly induced TH/NPY annular neurons: MPTP-light and control larvae, sulpiride 10 nM during 30-min exposure to white background (FIG. 6c)
# Description: Illumination experiments. The optimal condition for altering skin pigmentation and numbers of TH neurons were determined by raising larvae under two illumination conditions. In the first, larvae were placed on black, grey or white backgrounds (corresponding to N2.25, N7.25 or N9.5 on the Munsell neutral value scale of a monochromatic colour wheel) with constant illumination (331 lux (lx)). In the second, larvae on a white, grey or black background were exposed to constant illumination (6,560 lx, measured with a light meter (Sper Scientific)-equivalent to shady illumination on a sunny day), or to constant dark or to 12 h light/12 h dark. […] For some tests of the functional significance of newly TH neurons, animals were raised under different light/background conditions and a conditioning step of 30 min light/white background exposure was imposed to achieve similar levels of skin pigmentation before comparing light or dark adaptation between these groups.
# as §1
compound,measurement,setting,value
"CC(=O)OCOC(=O)CN(CC(=O)OCOC(C)=O)c1ccccc1OCCOc1ccccc1N(CC(=O)OCOC(C)=O)CC(=O)OCOC(C)=O [BAPTA-AM, 1,2-bis-(o-aminophenoxy)-ethane-N,N,N9,N9-tetraacetic acid, tetraacetoxymethyl ester]",changes in NT phenotype (dopamine/GABA coexpression) after kin or nonkin exposure,"OB interneurons; local delivery, stage 45 larvae, 48 hr odorant exposure",prevents
same,number of TH neurons or NPY/TH annular neurons in the VSC,"VSC neurons; drug-loaded agarose beads implanted above the VSC, 2 h white light following 24 h in the dark (FIG. 4b, c)",no increase
same,NPY/TH colocalization in VSC sections of bead-implanted larvae,"VSC neurons; larvae exposed to 2 h light, versus white-adapted control and calcein bead (FIG. 4B)",absent
"CN1CC=C(c2ccccc2)CC1 [MPTP, 1-methyl-4-phenyl-1,2,3,6-tetrahydropyridine]",changes in pigmentation after 30 min exposure to light / white background,"Xenopus larvae; dark-raised, MPTP-treated larvae (MPTP-dark group, FIG. 6c)",abolished
Oc1cc2c(cc1O)C(c1ccccc1)CNCC2 (centres unmarked) [SKF-38393],effect on pigmentation behaviour,"Xenopus larvae; D1 receptor agonist and antagonist, opposite effect to the D2 ligands",darkening
"NC1=N[C@H](O)[C@H]2[C@H]3O[C@]4(O)O[C@@H]([C@@H](O)[C@@]2(N1)[C@@H]4O)[C@]3(O)CO [TTX, tetrodotoxin]",changes in NT phenotype (dopamine/GABA coexpression) after kin or nonkin exposure,OB interneurons; in vivo,prevents
same,number of TH neurons or NPY/TH annular neurons in the VSC,VSC neurons; in vivo,no increase
CCN1CCCC1CNC(=O)c1cc(S(N)(=O)=O)ccc1OC (centres unmarked) [sulpiride],light-dependent changes in pigmentation (reduction in pigmented area) driven by newly induced TH/NPY annular neurons,Xenopus larvae,blocked
same,light-dependent changes in pigmentation (reduction in pigmented area) driven by newly induced TH/NPY annular neurons,Xenopus larvae; listed as Sulpiride,blocks
same,changes in skin pigmentation in response to altered illumination,"Xenopus larvae; stage-42 larvae raised in the dark, 10 nM sulpiride for 30 min (FIG. 1c)",blocked
same,number of TH VSC neurons,VSC neurons; sulpiride-treated larvae,not affected
